Measured values as given in patent publication US20060292683A1, “Cross-beta structures on microbial organisms” (Crossbeta Biosciences B.V., priority 2005, published 2006).

What was measured:
THP-1 monocytes = assay: Tissue factor up-regulation in THP-1 monocytes by misfolded proteins; type: cell-based; conditions: 40 μg/ml glycated hemoglobin or 10 μg/ml amyloid-β(1-40); controls freshly dissolved
Procedure: For tissue factor expression analysis purposes, THP-1 cells were cultured in IMDM without gentamycin and streptomycin. At day 0, one ml of cells was seeded at 1×10^6 cells/ml in the wells of six-well culture plates. At day 1, […] PBS or with cross-beta structure binding compounds ThT, Congo red, tPA and IgIV, as described above, at a cell density of 1.8×10^7/ml (regular culturing conditions). Negative control was buffer. After six hours, the cells were pelleted by centrifugation and resuspended in 100 μl TBS (50 mM Tris-HCl, 150 mM NaCl, pH 7.0-7.3). Next, the cells were frozen and thawed for four subsequent cycles. Cells were centrifuged for ten minutes at 16,000*g and the supernatant was used for analysis of tissue factor (TF) expression. First, protein concentrations were determined using an established protein concentration assay (Bicinchoninic Acid (BCA) Protein Assay). Protein concentrations were equalized between samples with TBS to correct for variations in cell density. […] Conversion of the substrate by activated factor X at 37° C. was recorded in time for 100 minutes, by absorbance readings at 405 nm. As an additional control, factor X activity was assessed with S. aureus cells only, omitting the monocytes. […]

[1] = molecular target: glycated hemoglobin (Hb-AGE) (Homo sapiens, UniProt P68871+P69905); assay: ELISA capture of glycated hemoglobin from solution by immobilized finger domains; type: binding; conditions: immobilized finger domain; not control hemoglobin
Sequence of glycated hemoglobin (Hb-AGE) (P69905 whole entry, the tested form may be a part): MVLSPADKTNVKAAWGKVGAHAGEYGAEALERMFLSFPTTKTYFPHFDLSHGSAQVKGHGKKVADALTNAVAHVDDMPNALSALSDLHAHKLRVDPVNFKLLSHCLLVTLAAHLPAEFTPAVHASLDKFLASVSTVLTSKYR
Sequence of glycated hemoglobin (Hb-AGE) (P68871 whole entry, the tested form may be a part): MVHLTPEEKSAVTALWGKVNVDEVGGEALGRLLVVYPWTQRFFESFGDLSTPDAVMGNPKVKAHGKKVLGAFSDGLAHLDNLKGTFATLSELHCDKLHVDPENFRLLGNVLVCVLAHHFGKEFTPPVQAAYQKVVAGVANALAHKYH

amyloid-β: amyloid-β(1-40) with cross-beta structure conformation
TF expression in THP-1 monocytes (factor X activation by lysates) (THP-1 monocytes): induce elevated levels of TF

fibronectin F4-5 with a His-tag: recombinant fibronectin type I domains 4-5, N-terminally tagged to growth hormone and His6-tag, C-terminal His6-tag
capture of glycated hemoglobin in solution [1]: specifically capture
